Source: patent US11793849B2, “Method of Chinese herbal medicine extract used for treating multiple diseases caused by drug resistant bacteria infection” (priority 2016, dated 2023)
Read-outs that look alike come from different tables or passages of the source.

System: MDRAB
Assay: Checkerboard assay (combined-use MIC, FIC)
Assay type: cell-based, Acinetobacter baumannii
Conditions: for FIC, all strains / MIC50 of the antibiotic after combined use / MIC90 of the antibiotic after combined use / reduction of the antibiotic's MIC50 vs single use / reduction of the antibiotic's MIC90 vs single use / share of strains with FIC ≤ 0.5: 20 MDRABs; for MIC: Acinetobacter baumannii, EA=60% ethanol extract, read-out: single-use MIC
Experimental: Test methods of the sensibilization effects of the test product to similar antibiotics: it is operated by referring to a checkerboard assay recommended by NCCLS.
The checkerboard assay is performed in a 96-pore sterile culture plate.
Calculation of a Fractional Inhibitory Concentration (FIC): FIC=S20b combined-use MIC/S20b single-use MIC+antibiotic combined-use MIC/antibiotic single-use MIC. By calculating the FIC, the combined antibacterial interaction between the EA and the antibiotic is evaluated, with synergistic effect for FIC≤0.5, additive effect for 0.5<FIC≤1, indifferent effect for 1<FIC≤2 and antagonistic effect for FIC>2. According to a sterile growth pore, the optimum concentration ratio between the EA and the antibiotic is founded out. At last, the effect of the EA to strengthen the efficacy of the antibiotic is evaluated.

[1] = antibiotic with 60% ethanol extract
[2] = antibiotic with 95% ethanol extract
[3] = antibiotic with EA (10% ethanol extract)
[4] = antibiotic with EA (water extract)

CC(C)(O/N=C(\C(=O)N[C@@H]1C(=O)N2C(C(=O)[O-])=C(C[n+]3ccccc3)CS[C@H]12)c1csc(N)n1)C(=O)O [CAZ, Ceftazidime]
FIC, all strains [1]: ≤ 2
MIC50 of the antibiotic after combined use [1]: 128 mg/L
MIC90 of the antibiotic after combined use [1]: 256 mg/L
reduction of the antibiotic's MIC50 vs single use [1]: 75%
reduction of the antibiotic's MIC90 vs single use [1]: 50%
share of strains with FIC ≤ 0.5 [1]: 10%
FIC, all strains [2]: ≤ 2
MIC50 of the antibiotic after combined use [2]: 128 mg/L
MIC90 of the antibiotic after combined use [2]: 256 mg/L
reduction of the antibiotic's MIC50 vs single use [2]: 75%
reduction of the antibiotic's MIC90 vs single use [2]: 50%
share of strains with FIC ≤ 0.5 [2]: 10%
FIC, all strains [3]: ≤ 2
MIC50 of the antibiotic after combined use [3]: 128 mg/L
MIC90 of the antibiotic after combined use [3]: 256 mg/L
reduction of the antibiotic's MIC50 vs single use [3]: 75%
reduction of the antibiotic's MIC90 vs single use [3]: 50%
share of strains with FIC ≤ 0.5 [3]: 30%
FIC, all strains [4]: ≤ 2
MIC50 of the antibiotic after combined use [4]: 128 mg/L
MIC90 of the antibiotic after combined use [4]: 256 mg/L
reduction of the antibiotic's MIC50 vs single use [4]: 75%
reduction of the antibiotic's MIC90 vs single use [4]: 50%
share of strains with FIC ≤ 0.5 [4]: 20%
MIC (strain A1): 128 mg/L
MIC (strain A2): 512 mg/L
MIC (strain A3): 512 mg/L
MIC (strain A4): 256 mg/L
MIC (strain A5): 64 mg/L
MIC (strain A6): 1020 mg/L
MIC (strain A7): 1020 mg/L
MIC (strain A8): 512 mg/L
MIC (strain A9): 512 mg/L
MIC (strain A10): 512 mg/L
MIC (strain A11): 512 mg/L
MIC (strain A12): 512 mg/L
MIC (strain A13): 256 mg/L
MIC (strain A14): 512 mg/L
MIC (strain A15): 256 mg/L
MIC (strain A16): 512 mg/L
MIC (strain A17): 256 mg/L
MIC (strain A18): 512 mg/L
MIC (strain A19): 256 mg/L
MIC (strain A20): 512 mg/L
combined-use MIC (strain A1, EA (10% ethanol extract) with CAZ): 64 mg/L
combined-use MIC (strain A1, EA (60% ethanol extract) + CAZ combined): 64 mg/L
combined-use MIC (strain A1, EA (P. clypearia 95% ethanol extract) combined with CAZ): 64 mg/L
combined-use MIC (strain A1, EA (water extract) with CAZ): 64 mg/L
combined-use MIC (strain A2, EA (10% ethanol extract) with CAZ): 256 mg/L
combined-use MIC (strain A2, EA (60% ethanol extract) + CAZ combined): 128 mg/L
combined-use MIC (strain A2, EA (P. clypearia 95% ethanol extract) combined with CAZ): 128 mg/L
combined-use MIC (strain A2, EA (water extract) with CAZ): 256 mg/L
combined-use MIC (strain A3, EA (10% ethanol extract) with CAZ): 256 mg/L
combined-use MIC (strain A3, EA (60% ethanol extract) + CAZ combined): 128 mg/L
combined-use MIC (strain A3, EA (P. clypearia 95% ethanol extract) combined with CAZ): 128 mg/L
combined-use MIC (strain A3, EA (water extract) with CAZ): 256 mg/L
combined-use MIC (strain A4, EA (10% ethanol extract) with CAZ): 64 mg/L
combined-use MIC (strain A4, EA (60% ethanol extract) + CAZ combined): 64 mg/L
combined-use MIC (strain A4, EA (P. clypearia 95% ethanol extract) combined with CAZ): 64 mg/L
combined-use MIC (strain A4, EA (water extract) with CAZ): 32 mg/L
combined-use MIC (strain A5, EA (10% ethanol extract) with CAZ): 32 mg/L
combined-use MIC (strain A5, EA (60% ethanol extract) + CAZ combined): 32 mg/L
combined-use MIC (strain A5, EA (P. clypearia 95% ethanol extract) combined with CAZ): 32 mg/L
combined-use MIC (strain A5, EA (water extract) with CAZ): 32 mg/L
combined-use MIC (strain A6, EA (10% ethanol extract) with CAZ): 512 mg/L
combined-use MIC (strain A6, EA (60% ethanol extract) + CAZ combined): 512 mg/L
combined-use MIC (strain A6, EA (P. clypearia 95% ethanol extract) combined with CAZ): 512 mg/L
combined-use MIC (strain A6, EA (water extract) with CAZ): 512 mg/L
combined-use MIC (strain A7, EA (10% ethanol extract) with CAZ): 512 mg/L
combined-use MIC (strain A7, EA (60% ethanol extract) + CAZ combined): 256 mg/L
combined-use MIC (strain A7, EA (P. clypearia 95% ethanol extract) combined with CAZ): 256 mg/L
combined-use MIC (strain A7, EA (water extract) with CAZ): 512 mg/L
combined-use MIC (strain A8, EA (10% ethanol extract) with CAZ): 256 mg/L
combined-use MIC (strain A8, EA (60% ethanol extract) + CAZ combined): 256 mg/L
combined-use MIC (strain A8, EA (P. clypearia 95% ethanol extract) combined with CAZ): 256 mg/L
combined-use MIC (strain A8, EA (water extract) with CAZ): 256 mg/L
combined-use MIC (strain A9, EA (10% ethanol extract) with CAZ): 128 mg/L
combined-use MIC (strain A9, EA (60% ethanol extract) + CAZ combined): 64 mg/L
combined-use MIC (strain A9, EA (P. clypearia 95% ethanol extract) combined with CAZ): 256 mg/L
combined-use MIC (strain A9, EA (water extract) with CAZ): 64 mg/L
combined-use MIC (strain A10, EA (10% ethanol extract) with CAZ): 256 mg/L
combined-use MIC (strain A10, EA (60% ethanol extract) + CAZ combined): 128 mg/L
combined-use MIC (strain A10, EA (P. clypearia 95% ethanol extract) combined with CAZ): 256 mg/L
combined-use MIC (strain A10, EA (water extract) with CAZ): 256 mg/L
combined-use MIC (strain A11, EA (10% ethanol extract) with CAZ): 128 mg/L
combined-use MIC (strain A11, EA (60% ethanol extract) + CAZ combined): 64 mg/L
combined-use MIC (strain A11, EA (P. clypearia 95% ethanol extract) combined with CAZ): 64 mg/L
combined-use MIC (strain A11, EA (water extract) with CAZ): 256 mg/L
combined-use MIC (strain A12, EA (10% ethanol extract) with CAZ): 128 mg/L
combined-use MIC (strain A12, EA (60% ethanol extract) + CAZ combined): 128 mg/L
combined-use MIC (strain A12, EA (P. clypearia 95% ethanol extract) combined with CAZ): 128 mg/L
combined-use MIC (strain A12, EA (water extract) with CAZ): 128 mg/L
combined-use MIC (strain A13, EA (10% ethanol extract) with CAZ): 128 mg/L
combined-use MIC (strain A13, EA (60% ethanol extract) + CAZ combined): 128 mg/L
combined-use MIC (strain A13, EA (P. clypearia 95% ethanol extract) combined with CAZ): 128 mg/L
combined-use MIC (strain A13, EA (water extract) with CAZ): 128 mg/L
combined-use MIC (strain A14, EA (10% ethanol extract) with CAZ): 64 mg/L
combined-use MIC (strain A14, EA (60% ethanol extract) + CAZ combined): 256 mg/L
combined-use MIC (strain A14, EA (P. clypearia 95% ethanol extract) combined with CAZ): 256 mg/L
combined-use MIC (strain A14, EA (water extract) with CAZ): 64 mg/L
combined-use MIC (strain A15, EA (10% ethanol extract) with CAZ): 128 mg/L
combined-use MIC (strain A15, EA (60% ethanol extract) + CAZ combined): 128 mg/L
combined-use MIC (strain A15, EA (P. clypearia 95% ethanol extract) combined with CAZ): 128 mg/L
combined-use MIC (strain A15, EA (water extract) with CAZ): 128 mg/L
combined-use MIC (strain A16, EA (10% ethanol extract) with CAZ): 128 mg/L
combined-use MIC (strain A16, EA (60% ethanol extract) + CAZ combined): 128 mg/L
combined-use MIC (strain A16, EA (P. clypearia 95% ethanol extract) combined with CAZ): 256 mg/L
combined-use MIC (strain A16, EA (water extract) with CAZ): 64 mg/L
combined-use MIC (strain A17, EA (10% ethanol extract) with CAZ): 64 mg/L
combined-use MIC (strain A17, EA (60% ethanol extract) + CAZ combined): 128 mg/L
combined-use MIC (strain A17, EA (P. clypearia 95% ethanol extract) combined with CAZ): 128 mg/L
combined-use MIC (strain A17, EA (water extract) with CAZ): 32 mg/L
combined-use MIC (strain A18, EA (10% ethanol extract) with CAZ): 256 mg/L
combined-use MIC (strain A18, EA (60% ethanol extract) + CAZ combined): 128 mg/L
combined-use MIC (strain A18, EA (P. clypearia 95% ethanol extract) combined with CAZ): 128 mg/L
combined-use MIC (strain A18, EA (water extract) with CAZ): 256 mg/L
combined-use MIC (strain A19, EA (10% ethanol extract) with CAZ): 64 mg/L
combined-use MIC (strain A19, EA (60% ethanol extract) + CAZ combined): 128 mg/L
combined-use MIC (strain A19, EA (P. clypearia 95% ethanol extract) combined with CAZ): 128 mg/L
combined-use MIC (strain A19, EA (water extract) with CAZ): 128 mg/L
combined-use MIC (strain A20, EA (10% ethanol extract) with CAZ): 128 mg/L
combined-use MIC (strain A20, EA (60% ethanol extract) + CAZ combined): 256 mg/L
combined-use MIC (strain A20, EA (P. clypearia 95% ethanol extract) combined with CAZ): 256 mg/L
combined-use MIC (strain A20, EA (water extract) with CAZ): 64 mg/L
